Assay results published in patent publication US20180000085A1, “USE OF PICOLINAMIDE COMPOUNDS WITH FUNGICIDAL ACTIVITY” (DOW AGROSCIENCES LLC, priority 2014, published 2018).

Assays:
Assay type in all cases: in vivo
Zymoseptoria tritici = experiment: Leaf blotch of wheat (SEPTTR) disease control on wheat seedlings; set-up: key to SEPTTR 1DP, HV activity at 100 ppm (% control rating) / SEPTTR 3DC, HV activity at 100 ppm (% control rating) / SEPTTR disease control, 1DP / SEPTTR disease control, 3DC / SEPTTR 1DP disease control rating, HV activity / SEPTTR 3DC disease control rating, HV activity / SEPTTR 3DC, LV activity at 125.1 g/H (% Control rating) / SEPTTR 1DP, LV activity at 125.1 g/H (% Control rating) / SEPTTR 1DP disease control rating, LV activity at 125.1 g/H / SEPTTR 3DC disease control rating, LV activity at 125.1 g/H / SEPTTR 3DC disease control rating, HV activity at 100 ppm / SEPTTR 1DP disease control rating, HV activity at 100 ppm / HV activity at 100 ppm SEPTTR 3DC (disease control rating) / HV activity at 100 ppm SEPTTR 1DP (disease control rating) / LV activity at 125.1 g/H SEPTTR 1DP (disease control rating) / LV activity at 125.1 g/H SEPTTR 3DC (disease control rating): A: > 80; B: ≤ 80; C: Not Tested; D: No Activity Observed in the Reported Assay; settings: low volume application, 125.1 g/H; for SEPTTR 1DP disease control rating, LV activity at 125.1 g/H: 1 day protectant; for SEPTTR 3DC disease control rating, LV activity at 125.1 g/H: 3 day curative
Puccinia triticina = experiment: Wheat brown rust (PUCCRT) disease control on wheat seedlings; settings: low volume application, 125.1 g/H; for PUCCRT 1DP disease control rating, LV activity at 125.1 g/H: 1 day protectant; for PUCCRT 3DC disease control rating, LV activity at 125.1 g/H: 3 day curative
Phakopsora pachyrhizi = experiment: Asian soybean rust (PHAKPA) disease control; set-up: key: A: > 80; B: ≤ 80; C: Not Tested; D: No Activity Observed in the Reported Assay; settings: 25 ppm; for PHAKPA disease control, 1DP: 1 Day Protectant; for PHAKPA disease control, 3DC: 3 Day Curative

SMILES	SEPTTR 1DP disease control rating, LV activity at 125.1 g/H (Zymoseptoria tritici)	SEPTTR 3DC disease control rating, LV activity at 125.1 g/H (Zymoseptoria tritici)	PUCCRT 1DP disease control rating, LV activity at 125.1 g/H (Puccinia triticina)	PUCCRT 3DC disease control rating, LV activity at 125.1 g/H (Puccinia triticina)	PHAKPA disease control, 1DP (Phakopsora pachyrhizi)	PHAKPA disease control, 3DC (Phakopsora pachyrhizi)
COc1ccnc(C(=O)N[C@@H](C)C(=O)O[C@@H](C)[C@@H](OC)c2ccccc2)c1OCOC(C)=O [Cmpd 886]	D	A (> 80)	A (> 80)	A (> 80)	B (≤ 80)	B (≤ 80)
COc1ccnc(C(=O)NC(C)C(=O)OC(C)C(Oc2ccccc2)C2CCCCC2)c1OC(C)=O (stereo not drawn) [Cmpd 908]	A (> 80)	A (> 80)	A (> 80)	A (> 80)	A (> 80)	B (≤ 80)
COc1ccnc(C(=O)NC(C)C(=O)OC(C)C(Oc2cccc(F)c2)C2CCCC2)c1OCOC(C)=O (stereo not drawn) [Cmpd 909]	A (> 80)	A (> 80)	A (> 80)	A (> 80)	A (> 80)	B (≤ 80)
COc1ccnc(C(=O)NC(C)C(=O)OC(C)C(Oc2ccc(F)cc2)C2CCCC2)c1OCOC(C)=O (stereo not drawn) [Cmpd 910]	A (> 80)	A (> 80)	A (> 80)	A (> 80)	A (> 80)	B (≤ 80)
COc1ccnc(C(=O)N[C@@H](C)C(=O)O[C@@H](C)[C@H](Oc2cccc(Cl)c2)C2CCCC2)c1OCOC(C)=O [Cmpd 911, (S)-(1R,2S)-1-(3-chlorophenoxy)-1-cyclopentylpropan-2-yl-2-(3-(acetoxymethoxy)-4-methoxypicolinamido)propanoate]	A (> 80)	A (> 80)	A (> 80)	A (> 80)	A (> 80)	B (≤ 80)
COc1ccnc(C(=O)NC(C)C(=O)OC(C)C(Oc2ccc(Cl)cc2)C2CCCC2)c1OCOC(C)=O (stereo not drawn) [Cmpd 912]	A (> 80)	A (> 80)	A (> 80)	A (> 80)	B (≤ 80)	B (≤ 80)
COc1ccnc(C(=O)NC(C)C(=O)OC(C)C(OCC(C)C)C2CCCC2)c1OCOC(C)=O (stereo not drawn) [Cmpd 915]	B (≤ 80)	A (> 80)	A (> 80)	A (> 80)	A (> 80)	B (≤ 80)
COc1ccnc(C(=O)NC(C)C(=O)OC(C)C(Oc2ccc(C)cc2)C2CCCC2)c1OCOC(C)=O (stereo not drawn) [Cmpd 916]	A (> 80)	B (≤ 80)	A (> 80)	A (> 80)	A (> 80)	D
COc1cccc(OC(C2CCCC2)C(C)OC(=O)C(C)NC(=O)c2nccc(OC)c2OCOC(C)=O)c1 (stereo not drawn) [Cmpd 917]	B (≤ 80)	A (> 80)	A (> 80)	A (> 80)	B (≤ 80)	B (≤ 80)
COc1ccnc(C(=O)N[C@@H](C)C(=O)O[C@@H](C)[C@H](Oc2ccc(F)cc2)C2CCCC2)c1OC(C)=O [Cmpd 919]	A (> 80)	A (> 80)	A (> 80)	A (> 80)	A (> 80)	D
COc1ccnc(C(=O)N[C@@H](C)C(=O)O[C@@H](C)[C@H](Oc2cccc(Cl)c2)C2CCCC2)c1OC(C)=O [Cmpd 920, (S)-(1R,2S)-1-(3-chlorophenoxy)-1-cyclopentylpropan-2-yl-2-(3-acetoxy-4-methoxypicolinamido)propanoate]	A (> 80)	A (> 80)	A (> 80)	A (> 80)	B (≤ 80)	B (≤ 80)
COc1ccnc(C(=O)N[C@@H](C)C(=O)O[C@@H](C)[C@H](Oc2ccc(C)cc2)C2CCCC2)c1OC(C)=O [Cmpd 923]	B (≤ 80)	B (≤ 80)	A (> 80)	A (> 80)	A (> 80)	B (≤ 80)
COc1ccnc(C(=O)N[C@@H](C)C(=O)O[C@@H](C)[C@H](Oc2ccccc2)c2ccc(F)cc2)c1OCOC(C)=O [Cmpd 924]	A (> 80)	A (> 80)	A (> 80)	A (> 80)	A (> 80)	D
COc1ccnc(C(=O)N[C@@H](C)C(=O)O[C@@H](C)[C@H](Oc2ccccc2)c2ccc(F)cc2)c1OC(C)=O [Cmpd 925]	A (> 80)	A (> 80)	A (> 80)	A (> 80)	A (> 80)	B (≤ 80)
